Consider five compounds from patent publication US5721238A, “2,8-disubstituted quinazolinones” (Bayer Aktiengesellschaft, priority 1995, dated 1998).

Holding throughout (assay type): biochemical
One assay concerns PDE V. Nature of the assay: Inhibition of the phosphodiesterases in vitro: PDE V (cGMP-specific). Conditions: cGMP-specific PDE V from porcine intestine, porcine aorta and/or human blood platelets; nucleotide 10^-6 mol/l; pH 7.5; 30 minutes. On the procedure: (§1) The cGMP-stimulatable PDE II, the cGMP-inhibitable PDE III and the cAMP-specific PDE IV were isolated from either porcine or bovine myocardia. The Ca-calmodulin-stimulatable PDE I was isolated from the porcine aorta or porcine brain. The cGMP-specific PDE V was obtained from the porcine intestine, porcine aorta and/or human blood platelets. Purification was carried out by anion exchange chromatography on MonoQ^R Pharmacia, essentially by the method of M. Hoey and Miles D. Houslay, Biochemical Pharmacology, Volume 40, 193-202 (1990).
(§2) The enzyme activity is determined in a test batch of 100 μl in 20 mM Tris/HCl buffer of pH 7.5 which contains 5 mM MgCl2, 0.1 mg/ml of bovine serum albumin and either 800 Bq of ^3 HcAMP or ^3 HcGMP. The final concentration of the corresponding nucleotide is 10^-6 mol/l. The reaction is started by addition of the enzyme and the amount of enzyme is chosen such that about 50% of the substrate is converted during the incubation time of 30 minutes. To test the cGMP-stimulatable PDE II, ^3 HcAMP is used as the substrate and 10^-6 mol/l of non-labelled cGMP is added to the batch. To test the Ca-calmodulin-dependent PDE I, 1 μM CaCl2 and 0.1 μM calmodulin are also added to the reaction batch. The reaction is stopped by addition of 100 μl of acetonitrile which contains 1 mM cAMP and 1 mM AMP. 100 μl of the reaction batch are separated on the HPLC and the cleavage products are determined quantitatively "online" using a flow-through scintillation counter. The substance concentration at which the rate of reaction is reduced by 50% is measured.

Another assay deals with PDE II. Nature of the assay: Inhibition of the phosphodiesterases in vitro: PDE II (cGMP-stimulatable). Particulars: cGMP-stimulatable PDE II from porcine or bovine myocardia; 3HcAMP substrate 10^-6 mol/l, 10^-6 mol/l non-labelled cGMP; pH 7.5; 30 minutes. The procedure: as §1, §2
In another assay the test system is PDE I. Description: Inhibition of the phosphodiesterases in vitro: PDE I (Ca-calmodulin-stimulatable). Particulars: Ca-calmodulin-stimulatable PDE I from porcine aorta or porcine brain; nucleotide 10^-6 mol/l; 1 μM CaCl2, 0.1 μM calmodulin; pH 7.5; 30 minutes. On the procedure: as §1, §2

Each structure is given as a SMILES string.

Broadly, the IC50 is the midpoint of a concentration-inhibition curve. A lower IC50 goes with inhibition by little substance.

On to `CCCCCC(O)C(OC)c1cccc2c(=O)[nH]c(-c3ccccc3OCCC)nc12` (stereo not drawn) [Example 14, 2-(2-n-Propoxyphenyl)-8-(1-methoxy-2-hydroxy-1-heptyl)-quinazolin-4(3H)-one], for which the figures for the IC50 in the assay on PDE V, in the assay on PDE II and in the assay with PDE I were 3 µM, 5 µM and 5 µM, respectively.

In the case of `CCCOc1ccccc1-c1nc2c(C(OC)C(O)Cc3ccccc3)cccc2c(=O)[nH]1` (stereo not drawn) [Example 15, 2-(2-n-Propoxyphenyl)-8-(3-phenyl-1-methoxy-2-hydroxy-1-propyl)-quinazolin-4(3H)-one], the IC50 with PDE II is 5 µM; in the assay on PDE I it was 3 µM.

For `CCCOc1ccccc1-c1nc2c(C(OC)C(O)CCc3ccccc3)cccc2c(=O)[nH]1` (stereo not drawn) [Example 16, 2-(2-n-Propoxyphenyl)-8-(4-phenyl-1-methoxy-2-hydroxy-1-butyl)-quinazolin-4(3H)-one], the IC50 in the assay on PDE V and with PDE II was 5 µM throughout.

Take `CCCCCC(O)C(CC)c1cccc2c(=O)[nH]c(-c3ccccc3OCCC)nc12` (stereo not drawn) [Example 20, 2-(2-n-Propoxyphenyl)-8-(4-hydroxy-3-nonyl)-quinazolin-4(3H)-one]: the IC50 with PDE V was found to be 5 µM; in the assay with PDE II, 2 µM; in the assay on PDE I, 10 µM.

Regarding `CCCOc1ccc(S(=O)(=O)N2CCOCC2)cc1-c1nc2c(C(C)CCCc3ccccc3)cccc2c(=O)[nH]1` (stereo not drawn) [Example 29, 2-(2-n-Propoxy-5-morpholinosulphonylphenyl)-8-(5-phenyl-2-pentyl)-quinazolin-4-(3H)-one], the IC50 in the assay with PDE V worked out at 1 µM; with PDE II it was 0.5 µM.
